Non-standard residues stand in square brackets, D forms with d. Residues, ends and D or L forms follow the SMILES beside them. Dip = N[C@H](C(=O)O)C(c1ccccc1)c1ccccc1
Assays:
HL-60/ADR = assay: In vitro cytotoxic activity, MTS assay; resistance index; type: cell-based, human; conditions: HL-60/ADR vs sensitive HL-60 (doxorubicin resistance)
Description: (§1) Tumor cells were grown as adherent monolayers or as suspensions at 37° C. in a humidified atmosphere (5% CO2, 95% air). The culture medium was RPMI 1640 containing 2 mM L-glutamine (Lonza, Belgium) and supplemented with 10% fetal bovine serum (FBS, Lonza). For experimental use, the adherent cells were detached from the culture flask by a 5-minute treatment with trypsin-versene (Lonza), diluted in Hanks' medium without calcium or magnesium (Lonza) and neutralized by addition of complete culture medium. Cells were counted in a hemocytometer and their viability was assessed by 0.25% trypan blue exclusion.
(§2) Tumor cells were plated in 96-well flat-bottom microtitration plates (Nunc, Dutscher, Brumath, France) and incubated at 37° C. for 24 hours before treatment in 190 μl of drug-free culture medium supplemented or not with 10% FBS for adherent or suspension growing cell lines, respectively.
(§3) The adherent cell lines were washed once with 200 μl FBS-free culture medium before treatment. Tumor cells were incubated for 4 hours with 10 concentrations of compounds in ¼ dilution step with a top dose of 400 μM (range 4×10^−4 to 4×10^−10 M), with 1% (final concentration) Triton X-100 as positive control and FBS-free culture medium as negative control. The cells (190 μl) were incubated in a 200 μl final volume of FBS-free culture medium containing test substances at 37° C. under 5% CO2.
(§4) Three independent experiments were performed, each concentration being tested in quadruplicate. Control cells were treated with vehicle alone. At the end of treatments, the cytotoxic activity was evaluated by a MTS assay (see § 3.3).
(§5) Like MTT, MTS is bioreduced by cells into a formazan product that is directly soluble in culture medium without processing, unlike MTT.
(§6) At the end of the cells treatment, 40 μl of a 0.22 μm filtered freshly combined solution of MTS (20 ml at 2 mg/ml, Ref G1111, Batch 235897, Exp 03/2009, Promega, Charbonnières, France) and PMS (1 ml at 0.92 mg/ml, Ref P9625, Batch 065K0961, Sigma) in Dulbecco's Phosphate Buffered Saline (DPBS, Ref 17-513Q, Batch 6MB0152, Cambrex), were added in each well. Culture plates were incubated for 2 h at 37° C. Absorbency (OD) were measured at 490 nm in each well using VICTOR^3TM 1420 multilabeled counter (Wallac, PerkinElmer, Courtaboeuf, France).
(§7) [formula] • The OD values are the mean of 4 experimental measurements. • IC50: drug concentration to obtain a 50% inhibition of cell proliferation.
(§8) The dose-response curves were plotted using XLFit 3 (IDBS, United Kingdom). The IC50 determination values were calculated using the XLFit 3 software from semi-log curves. Individual IC50 determination values as well as mean and SD values were generated.
(§9) Resistance index was calculated using the following formula: […]
(§10) Resistance index was calculated for each compound for each couple of sensitive and resistant cell lines. Individual resistance index was calculated when IC50 values of both sensitive and corresponding resistant cell lines were determined within same experiment. In addition, resistance index was also calculated ratio of mean IC50 values obtained during three independent experiments.

IGROV-1/CDDP = type: cell-based, human
Description: as §1, §2, §3, §4, §5, §6, §7, §8, §9, §10

MCF-7/mdr = type: cell-based, human
Description: as §1, §2, §3, §4, §5, §6, §7, §8, §9, §10

[1] = test system: murine CT26WT colon carcinoma; assay: Murine CT26WT colon carcinoma tumours in mice, intratumoural treatment; type: in vivo; conditions: for Mean tumour size (mm^2) at day 1: prior to start of treatment
Description: The administration takes place by intra-tumoural injection of LTX-315 dissolved in sterile saline (0.9% NaCl in sterile water).
The mice were divided into five groups, 8 mice in each group. When the tumours reached the desired size of 20 mm^2 the treatment by intra tumoural injection was initiated. Group one was treated solely on day 1, Group two on day 1 and 2, Group three on day 1 and 3 and Group four on day 1, 2 and 3. All daily treatments were one single injection of 1.0 mg LTX-315 dissolved in 50 μl (20 mg/ml). Group five was treated with the 50 μl of vehicle for LTX-315 (Group 5).
Weighing and physical examination were used as health controls.

A375 cells = assay: Release of HMGB1, Western blot of lysate and supernatant; type: cell-based, human; conditions: 35 μM, 5-60 min
Description: A375 cells were seeded with 3×10^5 cells/well in 6-well plates in a complete media, and allowed to adhere overnight. Cells were treated with LTX-315 or LTX-328 at 35 μM, and incubated at 37° C. and 5% CO2 for different time points (5, 10, 15, 30, 60 min), and negative controls were serum-free RPMI-1650. Supernatants (S) were collected and centrifuged at 1,400 g for five minutes, and cell lysates (L) were harvested after washing with PBS twice and then subsequently lysed using a 4× Sample buffer (Invitrogen, number), 0.1 M DTT (Sigma number) and water. Supernatants were concentrated using Amicon Ultra 50K centrifugal filters (Millipore UFC505024), and the cell lysate was sonicated. Both supernatants and lysate were boiled and resolved in a 10% sodium dodecyl sulfate polyacrylamide gel electrophoresis (SDS-PAGE), and then electro transferred to a polyvindiline difluoride (PVDF) membrane (Millipore). The membrane was blocked in 5% milk and incubated with the HMGB1 antibody (rabbit, polyclonal, abcam ab 18256); the membrane was then rinsed several times with TBST, incubated with a horseradish peroxidase (HRP)-conjugated secondary antibody (abcam ab6721), rinsed again with TBST and then developed using WB Luminol Reagent (Santa Cruz Biotechnology, Heidelberg, Germany).

[2] = Group 1, 1 mg intratumoural day 1
[3] = Group 2, 1 mg intratumoural days 1,2
[4] = Group 3, 1 mg intratumoural days 1,3
[5] = Group 4, 1 mg intratumoural days 1,2,3

NCCCC[C@H](NC(=O)[C@@H](NC(=O)[C@H](Cc1c[nH]c2ccccc12)NC(=O)[C@H](CCCCN)NC(=O)[C@H](CCCCN)NC(=O)[C@H](Cc1c[nH]c2ccccc12)NC(=O)[C@H](Cc1c[nH]c2ccccc12)NC(=O)[C@H](CCCCN)NC(=O)[C@@H](N)CCCCN)C(c1ccccc1)c1ccccc1)C(N)=O [LTX-315, K-K-W-W-K-K-W-Dip-K-NH2] (H-KKWWKKW[Dip]K-NH2)
Resistance index (RI) (HL-60/ADR): 1.45
Resistance index (RI) (IGROV-1/CDDP; IGROV-1/CDDP vs IGROV-1 (cisplatin resistance)): 0.50
IC50 (IGROV-1/CDDP; IGROV-1/CDDP, resistant): 3.19 µM
Resistance index (RI) (MCF-7/mdr; MCF-7/mdr vs sensitive MCF-7 (doxorubicin resistance)): 1.12
IC50 (MCF-7/mdr; MCF-7/mdr, resistant): 1.96 µM
Relapse of Tumour ([1]; Group 1, 1 mg day 1): 20%
Free of Tumour at end of Follow-Up ([1]; Group 1, 1 mg day 1, n=8): 50%
Mean tumour size (mm^2) on day 6 [1, 2]: 4.343 ± 2.295 mm^2
Mean tumour size (mm^2) on day 10 [1, 2]: 7.171 ± 4.035 mm^2
Mean tumour size (mm^2) on day 17 [1, 2]: 3.712 ± 3.712 mm^2
Mean tumour size (mm^2) at day 1 [1, 2]: 22.69 ± 0.4070 mm^2
Relapse of Tumour ([1]; Group 2, 1 mg days 1,2): 71%
Free of Tumour at end of Follow-Up ([1]; Group 2, 1 mg days 1,2, n=8): 25%
Mean tumour size (mm^2) on day 6 [1, 3]: 1.458 ± 1.458 mm^2
Mean tumour size (mm^2) on day 10 [1, 3]: 5.058 ± 4.014 mm^2
Mean tumour size (mm^2) on day 17 [1, 3]: 6.644 ± 3.430 mm^2
Mean tumour size (mm^2) at day 1 [1, 3]: 22.90 ± 1.155 mm^2
Relapse of Tumour ([1]; Group 3, 1 mg days 1,3): 29%
Free of Tumour at end of Follow-Up ([1]; Group 3, 1 mg days 1,3, n=8): 62.5%
Mean tumour size (mm^2) on day 6 [1, 4]: 2.983 ± 2.983 mm^2
Mean tumour size (mm^2) on day 10 [1, 4]: 10.85 ± 7.553 mm^2
Mean tumour size (mm^2) on day 17 [1, 4]: 0.00 ± 0.00 mm^2
Mean tumour size (mm^2) at day 1 [1, 4]: 21.43 ± 1.141 mm^2
Free of Tumour at end of Follow-Up ([1]; Group 4, 1 mg days 1,2,3, n=8): 62.5%
Tumour Response: complete response ([1]; Group 4, 1 mg days 1,2,3, n=8): 100%
Mean tumour size (mm^2) on day 6 [1, 5]: 0.00 ± 0.00 mm^2
Mean tumour size (mm^2) on day 10 [1, 5]: 0.00 ± 0.00 mm^2
Mean tumour size (mm^2) on day 17 [1, 5]: 1.308 ± 1.308 mm^2
Mean tumour size (mm^2) at day 1 [1, 5]: 24.09 ± 1.653 mm^2
treated animals observed with a complete tumour response ([1]; all four LTX-315 groups together): 27 of the 32
toxic or other adverse effects ([1]; all treated groups): No toxic or other adverse effects besides local necrotic tissue and wound formation were observed
HMGB1 translocation from cell lysate to supernatant (A375 cells): gradual translocation from the cell lysate to the supernatant detected

Source: patent US12239686B2, “Immune checkpoint inhibitor combinations” (LYTIX BIOPHARMA AS, priority 2014, dated 2025)
